From a melting point compilation (Tetko et al.; mined from patent text by program, amines drawn as free bases though some values may be those of a salt)

Row | Compound | melting point [°C]
1 | O=C(Nc1ccccc1C(=O)NCCc1ncc[nH]1)c1ccc(Cl)cc1Cl | 178 to 186
2 | O=Cc1c[nH]c2c1ccc1c3ccccc3[nH]c12 | > 290
3 | Cc1nn(C)c2nc3ccccc3c(Cl)c12 | 127 to 129
4 | COC(=O)Nc1cccc(-c2ccc3nncn3n2)c1 | 210 to 212
5 | c1ccc2c(c1)cc1cnc(Nc3ccc(N4CCOCC4)cc3)nn12 | 205 to 210
6 | O=C(O)c1sc2ccc(Br)cc2c1-c1ccccc1 | 265 to 266
7 | COc1cc(-c2oc3ccccc3c(=O)c2OCC(O)CN2CCN(c3ccccc3)CC2)cc(OC)c1OC (centres undefined) | 170 to 171
8 | CNC(=O)n1c(N=Cc2ccc([N+](=O)[O-])o2)nc2ccccc21 | 170 to 171
9 | CCCCOC1OC(CO)C(O)C(O)C1(O)N(Cc1cccc(C)c1C)C(=O)N(CCCl)N=O (centres undefined) | 90 to 92
10 | CCCCC(=O)Nc1ccc(Cl)c(-n2nc(CC)n(Cc3ccc(-c4ccccc4S(=O)(=O)NC(=O)OC(C)(C)C)cc3F)c2=O)c1 | 143 to 145
11 | O=[N+]([O-])c1cc(C(c2ccc(Nc3ccccc3)c([N+](=O)[O-])c2)(C(F)(F)F)C(F)(F)F)ccc1Nc1ccccc1 | 165 to 166
12 | O=S1(=O)c2cccc3cccc(c23)N1CCCCN1CC=C(c2c[nH]c3ccccc23)CC1 | 203
13 | COC(=O)c1c(-c2ccccc2Cl)c2cc(C)c(C)cc2[nH]c1=O | 288 to 289
14 | CCCCCN(C(=O)Nc1ccc2c(c1)C(C)(C)CCC2(C)C)c1ccc(C(=O)O)cc1 | 201 to 202
15 | CS(=O)c1ccc(-c2coc3ccc(-c4nnc(SCc5cccc(F)c5)o4)cc23)cc1 (centres undefined) | 135 to 136
16 | O=S(=O)(Cl)C(F)(F)C(F)(F)C(F)(F)C(F)(F)C(F)(F)C(F)(F)C(F)(F)C(F)(F)F | 36
17 | CCCCCCCCCCCCCCCCC#CCO | 60
18 | CC(=O)Nc1ccc(-c2cc(=O)c(C(=O)O)cn2-c2ccc(F)cc2)cc1 | 249 to 250
19 | O=C(Cl)OCC1c2ccccc2Oc2ccccc21 | 64 to 65
20 | CC(O)(c1nc2cc(S(=O)(=O)c3ccccc3)ccc2s1)C(F)(F)F (centres undefined) | 126 to 128
21 | CN1C(=O)C(NC(=O)Nc2cccc3ccccc23)N=C(c2ccccc2)c2ccccc21 (centres undefined) | 234 to 235
22 | Cc1nc(-c2ccc3c(c2)OCO3)c2cc3c(cc2n1)OCO3 | 207 to 210
23 | CC1(C)CC(C)(C)c2cc(NC(=O)c3ccc(O)cc3)ccc21 | 185 to 187

Row | Compound | melting point [°C]
24 | COC(=O)c1c(F)cc(OCCNC(=O)C2Cc3ccccc3N2S(=O)(=O)c2ccc(-c3ccc(F)cc3OC)cc2)cc1F (centres undefined) | 65 to 76
25 | CC(Cl)c1nc2c(c(=O)n(C)c(=O)n2C)n1C (centres undefined) | 190
26 | COc1ccc(CNc2cc(Cn3c(C(=O)c4cc(C)cc(C)c4)c(C(C)C)c(=O)[nH]c3=O)cc(Cl)n2)cc1 | 211 to 212
27 | Cc1ccc(-c2c(Cl)ncnc2OCCO)cc1 | 62 to 64
28 | CCOC(=O)Cc1nn(CC(=O)Nc2ccccc2)c(=O)c2ccccc12 | 187
29 | Cc1c(C)c2c(c(C)c1NC(=O)OC(C)(C)C)C(=O)C(C)(C)O2 | 105 to 106
30 | CS(=O)(=O)N1CCN(S(=O)(=O)C=Cc2ccccc2)C(C(=O)NO)C1 (centres undefined) | 94 to 99
31 | CC1(C)C(=O)C(c2ccc(F)c(F)c2)=C1c1ccc(S(C)(=O)=O)cc1 | 118
32 | CC(C)(C)OC(=O)c1ccccc1CCc1ccccc1N | 58 to 59
33 | CCOc1nccc(Cl)c1NC(=O)OC(C)(C)C | 73 to 74
34 | CC(C)OC(=O)C(C(=O)Nc1nccs1)=C1SCS1 | 174 to 175
35 | O=C(CCCl)NCc1ccc2ccn(C3CCN(CCc4ccc(F)cc4)CC3)c2c1 | 121 to 122
36 | Cc1c(CNCC(C)(C)C)n(C)c2ccc(NC(=O)c3ccc(OCC4CC4)cc3)cc12 | 169 to 170
37 | Cn1c(=O)c2c(nc(Cl)n2Cc2ccccc2C#N)n(C)c1=O | 222 to 224
38 | CC(C)(O)C#Cc1ccc(Br)cc1 | 62
39 | CC(C)n1c(C(=O)Cl)c(-c2ccc(F)cc2)c2ccccc2c1=O | 132 to 134
40 | O=C(c1ccccc1)c1ccc(Oc2ccc(S(=O)(=O)Cc3ccccc3)cn2)cc1 | 146 to 147
41 | O=C(c1ccccc1)C(Cc1ccccc1)C(=O)c1ccccc1 | 102 to 103
42 | FC(F)(F)c1ccc(/C=C/C2=CCN(Cc3c[nH]c4ncccc34)CC2)cc1 | 203 to 205
43 | CCCCCc1nc(NC(=N)N)sc1-c1cccc([N+](=O)[O-])c1 | 135 to 137
44 | Cc1cc(=O)n2nc(-c3ccc(F)cc3)c(-c3ccncc3)c2[nH]1 | > 280
45 | CN(C)c1ccc(-c2cccc3c2C2(COc4cc5c(cc42)OCO5)C(=O)N3)cn1 (centres undefined) | > 245
46 | O=P1(c2ccccc2)OCC2(CO1)COP(=O)(c1ccccc1)OC2 (centres undefined) | 264 to 265

Row | Compound | melting point [°C]
47 | O=C(/C=C/c1ccc2ccccc2c1)Nc1cc(Cl)ccc1OCc1nnn[nH]1 | 218 to 223
48 | Cc1c(CCN(C)C)c2cc(S(=O)(=O)c3ccccc3)ccc2n1C | 170 to 172
49 | CCOC(=O)c1cnc2nn(CC)cc2c1OCC | 111 to 113
50 | CSC1=NC2=NC3=C(CN(Cc4ccccc4)CC3=O)CN2N1 | 245 to 247
51 | CN(c1cccc2cc(-c3ncc(COCC(=O)O)s3)[nH]c12)S(=O)(=O)c1cccs1 | 197 to 198
52 | C=CCNC(=S)Nc1cc(=N)n2c(n1)SCCC2 | 196 to 197
53 | O=C(CCCCCl)NC1c2ccccc2CSc2ccccc21 (centres undefined) | 155 to 156
54 | CC(C)(n1cncn1)C(O)(Cn1cncn1)c1ccc(F)cc1 (centres undefined) | 156 to 158
55 | O=c1oc2c(Cl)cccc2c(O)c1-c1ccccc1 | 245
56 | CCN1Cn2c(=O)cc(-c3cccc(C(F)(F)F)c3)n3cnc(c23)C1=O | 278 to 280
57 | O=C(O)c1ccc(=O)n(CCCNC(=O)c2ccccn2)c1 | 180 to 182
58 | CC(C)N1CC(=O)C(C#N)=C1N | 285 to 290
59 | CC(C)Oc1cccc(C=C(C=O)C(C=O)=Cc2cccc(OC(C)C)c2)c1 | 116 to 117
60 | Cc1nn(C)c2nc3ccccc3c(NCc3ccccc3)c12 | 105
61 | Cc1nc(-c2ccccc2)c(NC(=O)Nc2ccccc2)s1 | 199 to 201
62 | CC(=O)CC(=O)C=Cc1ccccc1 | 82
63 | CCCCn1nc(SCCCCCC(=O)O)c(C(=O)O)c1Cc1cc2c(cc1Cl)OCO2 | 70
64 | Cc1nc(N)c2c(=O)n(C)c(=O)n(C)c2n1 | 267
65 | O=[N+]([O-])c1cc(NS(=O)(=O)CCl)ccc1F | 112 to 113
66 | CCOC(=O)NNc1cc(-c2ccc(OC)cc2)c(-c2ccc(OC)cc2)nn1 | 212 to 214
67 | CN1C=CNC1=C(C(=O)C(F)(F)F)C(=O)C(F)(F)F | 180
68 | CCOC(=O)C(=NOC)C1=CSCCN1C=O | 94 to 96
69 | COCOc1ccccc1COc1cc2c(cc1-c1cc(C=CC(=O)O)ccc1OC)C(C)(C)CCC2(C)C | 159 to 161

Further lines, results first:

Row | melting point [°C] | Compound
70 | 55 to 56 | COc1cccc(SC2CC(=O)N2)c1 (centres undefined)
71 | 296 to 298 | CCc1cc(C=CN2C(=O)c3ccccc3C2=O)c(=O)[nH]c1C
72 | 202 to 204 | CC(=O)NC[C@H]1CN(c2ccc(N3CCN(C(=S)CN)CC3)c(F)c2)C(=O)O1
73 | 159 to 165 | O=C1C=C(C2CCCCNC2=O)CCC1 (centres undefined)
74 | 233 to 239 | CCC(=O)N1CCC(NC(=O)Nc2ccc(Br)cc2)CC1
75 | 296 to 298 | Cc1csc2[nH]c(=O)n(Cc3ccc(Br)cc3F)c(=O)c12
76 | 212 to 214 | Cc1[nH]c(=O)c(C#N)cc1C(=O)CBr
77 | 62 to 65 | CCCCN(C1CCCOc2ccccc21)S(=O)(=O)CC (centres undefined)
78 | 85 | CCOP(=O)(CCN1CCC(N(NCCN2CCCC2)S(=O)(=O)c2ccc(Nc3nccc(Nc4ccc(F)cc4)n3)cc2)CC1)OCC
79 | 93 to 94 | O=CN1CC2CCCc3cccc1c32 (centres undefined)
80 | 124 to 126 | Cc1cc2c(nc1C(O)c1cccnc1)CCCCC2 (centres undefined)
81 | 192 to 194 | CC[C@H](C)[C@H](NC(=O)[C@H](C)N(C(C)=O)C1CCCCC1)C(=O)N[C@@H](Cc1ccc2ccccc2c1)[C@@H](O)[C@@H](O)CC(C)C
82 | 216 to 218 | CN1CCN(S(=O)(=O)c2ccc3c(c2)C(=O)c2ccccc2C3=O)CC1
83 | 138 to 139 | CCC1(C2CCN(c3ncnc4cc(OC)c(OC)cc34)CC2)CO1 (centres undefined)
84 | 151 to 155 | COc1ccc2c(c1)OCC(n1ccnc1)C2=O (centres undefined)
85 | 150 | CCOC(=O)N1CCC(Nc2nc3ccccc3n2Cc2ccoc2C)CC1
86 | 249 to 252 | O=C(C1CCCc2c1c1ccccc1n2Cc1ccccc1)N1CCCCC1 (centres undefined)
87 | 147 to 148 | CCOC(=O)C1(Cl)C(=O)N2CCOc3cc(Cl)cc1c32 (centres undefined)
88 | 154 to 156 | O=S1(=O)C(CN2CCCCC2)=Cc2ccc(Cl)cc21
89 | 226 to 227 | CC(C)(C)OC(=O)c1ncn2c1[C@@H]1CCCN1C(=O)c1sccc1-2
90 | 103 to 104 | O=C(Nc1c(-c2ccccc2F)nnn1CSc1ccccc1)C(Cl)C1CCC1 (centres undefined)
91 | 114 to 115 | Cc1ccc(S(=O)(=O)OCC2C(CC(C)C3CCC4C(O)CCCC34C)N(C)OC2(C)C)cc1 (centres undefined)
92 | 117 to 118 | CN(C(=O)c1ccc2nonc2c1)C1CC=C(F)CC1 (centres undefined)
93 | 105 | CN1CCC(c2c(O)cc(O)c3c(=O)cc(Oc4ccccc4Cl)oc23)C(O)C1 (centres undefined)
94 | 223 | O=C(C=Cc1ccccc1)N1CCc2c([nH]c3ccccc23)C1c1ccc2c(c1)CCC2 (centres undefined)
95 | 249 to 250 | CC1(C)CC(=O)Nc2ccc(-c3cc(F)cc(C#N)c3)cc21
96 | 255 to 257 | COc1ccc(Nc2cccc3c2C(=O)N([C@@]2(C)CCC(=O)NC2=O)C3=O)c(OC)c1
97 | 106 to 110 | CC(C)(C)OC(=O)CC(NC(=O)C1CCCN2C(=O)CCC(NC(=O)c3ccccc3)C(=O)N12)C(O)COCc1c(Cl)cccc1Cl (centres undefined)
98 | 223 to 226 | CCC(=O)OCCOCn1cnc2c(=O)[nH]c(N)nc21
99 | 120 to 121 | CC1(C)C(=O)OC2=C1CC(OS(C)(=O)=O)C=C2 (centres undefined)
